Laboratory results: the NIST ThermoML archive (doi:10.1021/je100068y)
Values joined by “and” are separate entries in the source; they are usually repeats but may differ in a detail not shown here. Equal values may be shown once. Numbers after ± are expanded uncertainties.

Legend:
[1] = mn = molality of the nth substance listed, in mol/kg; details: 101.33 kPa, Liquid, m1 = 0.05
[2] = cn = amount concentration of the nth substance listed, in mol/dm3; details: 101.33 kPa, Liquid, Alternating current cell with electrodes

In the case of CCCCCCCCCCCCOS(=O)(=O)[O-].[Na+] [sodium dodecyl sulfate] + O, the mass density ([1]; 298.15 K) is reported as 999.198 ± 0.14 kg/m3 and 999.155 ± 0.23 kg/m3, the mass density ([1]; 303.15 K) is reported as 997.657 ± 0.14 kg/m3 and 997.661 ± 0.23 kg/m3 and the mass density ([1]; 308.15 K) is reported as 995.989 ± 0.14 kg/m3 and 995.962 ± 0.24 kg/m3. For the same compound, the mass density ([1]; 313.15 K) was 994.178 ± 0.14 kg/m3 and 994.186 ± 0.24 kg/m3, the electrical conductivity ([2]; 288.15 K, c1 = 0.003022) was 0.0165 ± 0.00027 S/m and the electrical conductivity ([2]; 288.15 K, c1 = 0.004552) was 0.0247 ± 0.00033 S/m. For the same compound, the electrical conductivity ([2]; 288.15 K, c1 = 0.005661) was 0.0304 ± 0.00037 S/m, the electrical conductivity ([2]; 288.15 K, c1 = 0.006744) was 0.0361 ± 0.00042 S/m and the electrical conductivity ([2]; 288.15 K, c1 = 0.007679) was 0.0408 ± 0.00044 S/m. It also gave an electrical conductivity ([2]; 288.15 K, c1 = 0.008765) of 0.0447 ± 0.00047 S/m, an electrical conductivity ([2]; 288.15 K, c1 = 0.009933) of 0.0474 ± 0.00048 S/m and an electrical conductivity ([2]; 288.15 K, c1 = 0.0111) of 0.0497 ± 0.00051 S/m. It also gave an electrical conductivity ([2]; 288.15 K, c1 = 0.01221) of 0.0518 ± 0.00053 S/m, an electrical conductivity ([2]; 288.15 K, c1 = 0.01335) of 0.0538 ± 0.00055 S/m and an electrical conductivity ([2]; 288.15 K, c1 = 0.01444) of 0.0558 ± 0.00057 S/m. The electrical conductivity ([2]; 288.15 K, c1 = 0.0156) was 0.058 ± 0.00059 S/m, the electrical conductivity ([2]; 288.15 K, c1 = 0.01674) was 0.0601 ± 0.00061 S/m and the electrical conductivity ([2]; 293.15 K, c1 = 0.003022) was 0.0184 ± 0.00031 S/m. The electrical conductivity ([2]; 293.15 K, c1 = 0.004552) was 0.0279 ± 0.00037 S/m, the electrical conductivity ([2]; 293.15 K, c1 = 0.005661) was 0.0344 ± 0.00042 S/m and the electrical conductivity ([2]; 293.15 K, c1 = 0.006744) was 0.0408 ± 0.00047 S/m. The electrical conductivity ([2]; 293.15 K, c1 = 0.007679) was 0.0461 ± 0.0005 S/m, the electrical conductivity ([2]; 293.15 K, c1 = 0.008765) was 0.0502 ± 0.00052 S/m and the electrical conductivity ([2]; 293.15 K, c1 = 0.009933) was 0.0532 ± 0.00054 S/m. The electrical conductivity ([2]; 293.15 K, c1 = 0.0111) was 0.0559 ± 0.00057 S/m, the electrical conductivity ([2]; 293.15 K, c1 = 0.01221) was 0.0584 ± 0.00059 S/m and the electrical conductivity ([2]; 293.15 K, c1 = 0.01335) was 0.0609 ± 0.00062 S/m. For the same compound, the electrical conductivity ([2]; 293.15 K, c1 = 0.01444) was 0.0632 ± 0.00064 S/m, the electrical conductivity ([2]; 293.15 K, c1 = 0.0156) was 0.0657 ± 0.00067 S/m and the electrical conductivity ([2]; 293.15 K, c1 = 0.01674) was 0.0683 ± 0.00069 S/m. It also gave an electrical conductivity ([2]; 298.15 K, c1 = 0.003022) of 0.0207 ± 0.00034 S/m, an electrical conductivity ([2]; 298.15 K, c1 = 0.004552) of 0.0313 ± 0.00042 S/m and an electrical conductivity ([2]; 298.15 K, c1 = 0.005661) of 0.0388 ± 0.00047 S/m. It also gave an electrical conductivity ([2]; 298.15 K, c1 = 0.006744) of 0.0458 ± 0.00053 S/m, an electrical conductivity ([2]; 298.15 K, c1 = 0.007679) of 0.0517 ± 0.00056 S/m and an electrical conductivity ([2]; 298.15 K, c1 = 0.008765) of 0.0565 ± 0.00059 S/m. For the same compound, the electrical conductivity ([2]; 298.15 K, c1 = 0.009933) was 0.06 ± 0.00061 S/m, the electrical conductivity ([2]; 298.15 K, c1 = 0.0111) was 0.0632 ± 0.00064 S/m and the electrical conductivity ([2]; 298.15 K, c1 = 0.01221) was 0.0661 ± 0.00067 S/m. It also gave an electrical conductivity ([2]; 298.15 K, c1 = 0.01335) of 0.0688 ± 0.0007 S/m, an electrical conductivity ([2]; 298.15 K, c1 = 0.01444) of 0.0715 ± 0.00072 S/m and an electrical conductivity ([2]; 298.15 K, c1 = 0.0156) of 0.0745 ± 0.00076 S/m. For the same compound, the electrical conductivity ([2]; 298.15 K, c1 = 0.01674) was 0.0775 ± 0.00079 S/m, the electrical conductivity ([2]; 303.15 K, c1 = 0.003022) was 0.0234 ± 0.00038 S/m and the electrical conductivity ([2]; 303.15 K, c1 = 0.004552) was 0.0349 ± 0.00046 S/m. It also gave an electrical conductivity ([2]; 303.15 K, c1 = 0.005661) of 0.0431 ± 0.00052 S/m, an electrical conductivity ([2]; 303.15 K, c1 = 0.006744) of 0.051 ± 0.00059 S/m and an electrical conductivity ([2]; 303.15 K, c1 = 0.007679) of 0.0577 ± 0.00063 S/m. The electrical conductivity ([2]; 303.15 K, c1 = 0.008765) was 0.0632 ± 0.00065 S/m, the electrical conductivity ([2]; 303.15 K, c1 = 0.009933) was 0.0671 ± 0.00069 S/m and the electrical conductivity ([2]; 303.15 K, c1 = 0.0111) was 0.0708 ± 0.00072 S/m. For the same compound, the electrical conductivity ([2]; 303.15 K, c1 = 0.01221) was 0.074 ± 0.00075 S/m, the electrical conductivity ([2]; 303.15 K, c1 = 0.01335) was 0.0774 ± 0.00079 S/m and the electrical conductivity ([2]; 303.15 K, c1 = 0.01444) was 0.0805 ± 0.00082 S/m. It also gave an electrical conductivity ([2]; 303.15 K, c1 = 0.0156) of 0.084 ± 0.00085 S/m, an electrical conductivity ([2]; 303.15 K, c1 = 0.01674) of 0.0873 ± 0.00089 S/m and an electrical conductivity ([2]; 308.15 K, c1 = 0.003022) of 0.0258 ± 0.00042 S/m. For the same compound, the electrical conductivity ([2]; 308.15 K, c1 = 0.004552) was 0.0386 ± 0.00051 S/m, the electrical conductivity ([2]; 308.15 K, c1 = 0.005661) was 0.0477 ± 0.00058 S/m and the electrical conductivity ([2]; 308.15 K, c1 = 0.006744) was 0.0564 ± 0.00065 S/m. The electrical conductivity ([2]; 308.15 K, c1 = 0.007679) was 0.0638 ± 0.0007 S/m, the electrical conductivity ([2]; 308.15 K, c1 = 0.008765) was 0.0704 ± 0.00073 S/m and the electrical conductivity ([2]; 308.15 K, c1 = 0.009933) was 0.0751 ± 0.00077 S/m. For the same compound, the electrical conductivity ([2]; 308.15 K, c1 = 0.0111) was 0.0793 ± 0.00081 S/m, the electrical conductivity ([2]; 308.15 K, c1 = 0.01221) was 0.083 ± 0.00084 S/m and the electrical conductivity ([2]; 308.15 K, c1 = 0.01335) was 0.0869 ± 0.00088 S/m. The electrical conductivity ([2]; 308.15 K, c1 = 0.01444) was 0.0904 ± 0.00092 S/m, the electrical conductivity ([2]; 308.15 K, c1 = 0.0156) was 0.0944 ± 0.00096 S/m and the electrical conductivity ([2]; 308.15 K, c1 = 0.01674) was 0.098 ± 0.00099 S/m.
